According to patent US20230192878A1, “METHODS, THERAPIES AND USES FOR TREATING CANCER” (PFIZER INC., priority 2020, published 2023):

Tests used:
RPMI8226 = test: Soluble BCMA (sBCMA) shedding after GSI (ELISA); assay type: cell-based, Human; parameters: unit not given here; conditions: Table 6 (sBCMA in supernatant, ELISA), 24 hours
Method: (§1) Multiple myeloma cells (MM.1S, OPM2, H929, Molp8, RPMI8226) were seeded in a 96-well U-bottom plate at 40,000 cells/well. Cells were incubated for 24 hours in the presence of GSI diluted in RPMI medium (0.1% DMSO). The following concentrations of the GSI were tested: 1000 nM, 500 nM, 100 nM, 50 nM, 25 nM, 10 nM, 5 nM, 2.5 nM, 1 nM, 0.1 nM, 0.01 nM. After 24 hours, cell culture medium was collected and concentration of sBCMA was measured in supernatants using Human BCMA/TNFRSF17 DuoSet ELISA kit (R&D Systems) according to manufacturer's instructions.

H929 = test: Soluble BCMA (sBCMA) shedding after GSI (ELISA); assay type: cell-based, Human; parameters: unit not given here; conditions: Table 6 (sBCMA in supernatant, ELISA), 24 hours
Method: as §1

Molp8 = test: Cell surface BCMA expression after GSI, time course and washout; assay type: cell-based
Method: (§2) Multiple myeloma cells (MM.1S, OPM2, H929, Molp8, RPMI8226) were seeded in a 6-well plate at 800,000 cells/2 ml/well with GSI diluted at 1 μM in RPMI medium (with 0.1% DMSO). Cells were collected to evaluate cell surface BCMA expression at baseline, and then at 3 hours, 6 hours and 24 hours after addition of the GSI. After 24 hours of incubation with the GSI, cells were washed twice in PBS and re-plated in fresh 6-well plates. […] At the indicated time points, samples were stained with a ZombieNIR Viability dye (Biolegend) for 20 minutes at room temperature at 1 in 500 dilution in PBS, washed with PBS+2% FBS and further stained with anti-BCMA PE-labelled antibody diluted in PBS+2% FBS for 30 minutes at 4° C. Samples were acquired on BD Flow Cytometer and analyzed using FlowJo software. Dead cells were removed from the analysis by gating on ZombieNIR negative population. BCMA MFI was plotted as a histogram.

MM.1S = test: as above; assay type: cell-based
Method: as §2

OPM2 = test: as above; assay type: cell-based
Method: as §2

H929-luc = test: BCMAxCD3 bispecific mediated cell killing with human T cells, with or without GSI; assay type: cell-based; conditions: 60 hours, with or without 1 μM GSI
Method: (§3) CD3^+ T cells from PBMCs (Stem Cell Technologies) were negatively selected using EasySep Human T cell enrichment kit (Stem Cell Technologies). Multiple myeloma cells expressing luciferase (MM.1S-luc, OPM2-luc, H929-luc, Molp8-luc, RPM18226-luc) were treated with 1 μM GSI […]. After 24 hours, cells were seeded with 50,000 CD3^+ pan T cells in a clear 96-well V-bottom plate. Cells were further treated with a range of BCMAxCD3 bispecific antibody concentrations with or without 1 μM GSI. 60 hours after treatment, luciferase activity in treated cells was analyzed using NeoLite reagent kit (Perkin Elmer) and acquired on VictorX multimode plate reader (Perkin Elmer). Cell viability was calculated by dividing luciferase activity of treated cells over luciferase activity of untreated control (no BCMAxCD3 bispecific antibody added).

Molp8-luc = test: as above; assay type: cell-based; conditions: 60 hours, with or without 1 μM GSI
Method: as §3

CD8+ T cells = test: PD-1 induction on CD8+ T cells co-cultured with MM.1S-luc cells; assay type: cell-based, human; conditions: 1 nM BCMAxCD3 bispecific, ± SD
Method: CD3+ T cells from PBMCs (Stem Cell Technologies) were negatively selected using EasySep Human T cell enrichment kit (Stem Cell Technologies). 10,000 target Multiple Myeloma MM.1S cells expressing luciferase (MM.1S-luc) were seeded with 50,000 CD3^+ pan T cells in a clear 96-well V-bottom plate. Cells were treated with 1 nM BCMAxCD3 bispecific antibody and PD-1 expression was analyzed at 3, 24, 48 and 72 hours after addition of the BCMAxCD3 bispecific. At the specified time points, cells were collected from the wells, washed with PBS+2% FBS, and stained with ZombieNIR Viability dye (Biolegend) in PBS for 20 minutes at room temperature, followed by staining with antibodies against human CD8 and PD-1 (Biolegend). Samples were analyzed using FlowJo flow cytometry analysis software. Dead cells were removed from analysis by gating on ZombieNIR negative population. Samples were further gated on CD8^+ positive population. Percentage of PD-1+ cells is expressed as PD-1 positive cells within the CD8+ population.

CCC[C@H](N[C@H]1CCc2cc(F)cc(F)c2C1)C(=O)Nc1cn(C(C)(C)CNCC(C)(C)C)cn1 [GSI, nirogacestat]
BCMA (-PE) MFI (RPMI8226; RPMI8226, GSI 0.01 nM): 4710.8
BCMA (-PE) MFI (RPMI8226; RPMI8226, GSI 0.1 nM): 3333.8
BCMA (-PE) MFI (RPMI8226; RPMI8226, GSI 1 nM): 2647.5
BCMA (-PE) MFI (RPMI8226; RPMI8226, GSI 2.5 nM): 2398
BCMA (-PE) MFI (RPMI8226; RPMI8226, GSI 5 nM): 2525.6
BCMA (-PE) MFI (RPMI8226; RPMI8226, GSI 10 nM): 1926.2
BCMA (-PE) MFI (RPMI8226; RPMI8226, GSI 25 nM): 836.5
BCMA (-PE) MFI (RPMI8226; RPMI8226, GSI 50 nM): 249.5
BCMA (-PE) MFI (RPMI8226; RPMI8226, GSI 100 nM): 64.1
BCMA (-PE) MFI (RPMI8226; RPMI8226, GSI 500 nM): 0 ± 0
BCMA (-PE) MFI (RPMI8226; RPMI8226, GSI 1000 nM): 0 ± 0
BCMA (-PE) MFI (H929; H929, GSI 0.01 nM): 24084.8
BCMA (-PE) MFI (H929; H929, GSI 0.1 nM): 27414.8
BCMA (-PE) MFI (H929; H929, GSI 1 nM): 19516.4
BCMA (-PE) MFI (H929; H929, GSI 2.5 nM): 12874.8
BCMA (-PE) MFI (H929; H929, GSI 5 nM): 8438.2
BCMA (-PE) MFI (H929; H929, GSI 10 nM): 4901.7
BCMA (-PE) MFI (H929; H929, GSI 25 nM): 2336.4
BCMA (-PE) MFI (H929; H929, GSI 50 nM): 1460.7
BCMA (-PE) MFI (H929; H929, GSI 100 nM): 1110.6
BCMA (-PE) MFI (H929; H929, GSI 500 nM): 716.5
BCMA (-PE) MFI (H929; H929, GSI 1000 nM): 625.1
BCMA (-PE) MFI (Molp8; Molp8, GSI 1 μM for 24 h, 3 h post wash): 7523
BCMA (-PE) MFI (Molp8; Molp8, GSI 1 μM for 24 h, 5 h post wash): 5050
BCMA (-PE) MFI (Molp8; Molp8, GSI 1 μM for 24 h, 24 h post wash): 2960
BCMA (-PE) MFI (Molp8; Molp8, GSI 1 μM, 3 h after GSI): 2461
BCMA (-PE) MFI (Molp8; Molp8, GSI 1 μM, 6 h after GSI): 3098
BCMA (-PE) MFI (Molp8; Molp8, GSI 1 μM, 24 h after GSI): 5307
BCMA (-PE) MFI (MM.1S; GSI 1 μM for 24 h, 3 h post wash): 33509
BCMA (-PE) MFI (MM.1S; GSI 1 μM for 24 h, 5 h post wash): 23906
BCMA (-PE) MFI (MM.1S; GSI 1 μM for 24 h, 24 h post wash): 11170
BCMA (-PE) MFI (MM.1S; GSI 1 μM, 3 h after GSI): 13690
BCMA (-PE) MFI (MM.1S; GSI 1 μM, 6 h after GSI): 14920
BCMA (-PE) MFI (MM.1S; GSI 1 μM, 24 h after GSI): 25602
BCMA (-PE) MFI (OPM2; OPM2, GSI 1 μM for 24 h, 3 h post wash): 21621
BCMA (-PE) MFI (OPM2; OPM2, GSI 1 μM for 24 h, 5 h post wash): 11050
BCMA (-PE) MFI (OPM2; OPM2, GSI 1 μM for 24 h, 24 h post wash): 2624
BCMA (-PE) MFI (OPM2; OPM2, GSI 1 μM, 3 h after GSI): 9257
BCMA (-PE) MFI (OPM2; OPM2, GSI 1 μM, 6 h after GSI): 9854
BCMA (-PE) MFI (OPM2; OPM2, GSI 1 μM, 24 h after GSI): 20592

PF-06863135: heterodimeric humanized full-length bispecific antibody with one BCMA binding arm and one CD3 binding arm
H929 cell viability (% control) (H929-luc; BCMA × CD3 0.00001 nM): 80.2 ± 0.3 % control
H929 cell viability (% control) (H929-luc; BCMA × CD3 0.00005 nM): 81.1 ± 0.2 % control
H929 cell viability (% control) (H929-luc; BCMA × CD3 0.00026 nM): 79 ± 0.8 % control
H929 cell viability (% control) (H929-luc; BCMA × CD3 0.00128 nM): 77.8 ± 3.3 % control
H929 cell viability (% control) (H929-luc; BCMA × CD3 0.0064 nM): 81.2 ± 3^ % control
H929 cell viability (% control) (H929-luc; BCMA × CD3 0.032 nM): 98.6 ± 1.2 % control
H929 cell viability (% control) (H929-luc; BCMA × CD3 0.16 nM): 23.2 ± 7.2 % control
H929 cell viability (% control) (H929-luc; BCMA × CD3 0.8 nM): 11.3 ± 1.5 % control
H929 cell viability (% control) (H929-luc; BCMA × CD3 4 nM): 8.6 ± 3 % control
Molp8 cell viability (% control) (Molp8-luc; BCMA × CD3 0.00001 nM): 64 ± 11.6 % control
Molp8 cell viability (% control) (Molp8-luc; BCMA × CD3 0.00005 nM): 59.1 ± 4.6 % control
Molp8 cell viability (% control) (Molp8-luc; BCMA × CD3 0.00026 nM): 58.5 ± 0.6 % control
Molp8 cell viability (% control) (Molp8-luc; BCMA × CD3 0.00128 nM): 66.7 ± 0.3 % control
Molp8 cell viability (% control) (Molp8-luc; BCMA × CD3 0.0064 nM): 55.2 ± 1.3 % control
Molp8 cell viability (% control) (Molp8-luc; BCMA × CD3 0.032 nM): 66.1 ± 4.9 % control
Molp8 cell viability (% control) (Molp8-luc; BCMA × CD3 0.16 nM): 8 ± 2 % control
Molp8 cell viability (% control) (Molp8-luc; BCMA × CD3 0.8 nM): 6.1 ± 0.7 % control
Molp8 cell viability (% control) (Molp8-luc; BCMA × CD3 4 nM): 5.2 ± 0.3 % control
% PD-1 (of CD8+ T cells) (CD8+ T cells; 3 hours): 12.8 ± 0.6%
% PD-1 (of CD8+ T cells) (CD8+ T cells; 24 hours): 18.9 ± 1.2%
% PD-1 (of CD8+ T cells) (CD8+ T cells; 48 hours): 69.9 ± 3.1%
% PD-1 (of CD8+ T cells) (CD8+ T cells; 72 hours): 69.9 ± 3.1%
